According to patent US7498319B2, “Phosphinic acid derivatives” (Novartis AG, priority 2003, dated 2009):
Where a name gives a salt, the structure may show the parent alone.

Experiments:
[1] = system: "epilepsy-like" discharges of pyramidal cells; experiment: penicillin-induced "epileptic" hippocampus section preparation (electrophysiology); details: in vitro; concentration of 6 μM

melting point	Structure (SMILES)	effect on "epilepsy-like" discharges of pyramidal cells [1]
192 to 195 °C	COc1cc(CNC[C@H](O)CP(=O)(O)Cc2ccccc2)ccn1 [Example 4, {3-[(2-methoxy-4-pyridylmethyl)-amino]-2-(S)-hydroxy-propyl}-(benzyl)phosphinic acid]	
226 to 228 °C	O=c1cc(CNC[C@H](O)CP(=O)(O)Cc2ccccc2)cc[nH]1 (as salt: hydrochloride) [Example 10, {2-(S)-hydroxy-3-[(2-oxo-1,2-dihydro-pyridin-4-ylmethyl)-amino]-propyl}-(benzyl)-phosphinic acid]	
159 to 160 °C	COc1cc(CNC[C@H](O)CP(=O)(O)CC2CCCCC2)ccn1 (as salt: hydrochloride) [Example 2, {3-[(2-methoxy-4-pyridylmethyl)-amino]-2-(S)-hydroxy-propyl}-(cyclohexylmethyl)-phosphinic acid]	
	NCC(CC(=O)O)c1ccc(Cl)cc1 (stereo not shown) [baclofen]	inhibits
